These results are taken from PMC8482771 (ACS Omega, 2021).

Holding throughout (type): cell-based
One series in a line: Cytotoxicity assay. The conditions noted are these: human, nontransfected 1321N1 astrocytoma cells.
The target of another series is T1, h-P2X2R (Homo sapiens, UniProt Q9UBL9).
T1 sequence (Q9UBL9 1-471): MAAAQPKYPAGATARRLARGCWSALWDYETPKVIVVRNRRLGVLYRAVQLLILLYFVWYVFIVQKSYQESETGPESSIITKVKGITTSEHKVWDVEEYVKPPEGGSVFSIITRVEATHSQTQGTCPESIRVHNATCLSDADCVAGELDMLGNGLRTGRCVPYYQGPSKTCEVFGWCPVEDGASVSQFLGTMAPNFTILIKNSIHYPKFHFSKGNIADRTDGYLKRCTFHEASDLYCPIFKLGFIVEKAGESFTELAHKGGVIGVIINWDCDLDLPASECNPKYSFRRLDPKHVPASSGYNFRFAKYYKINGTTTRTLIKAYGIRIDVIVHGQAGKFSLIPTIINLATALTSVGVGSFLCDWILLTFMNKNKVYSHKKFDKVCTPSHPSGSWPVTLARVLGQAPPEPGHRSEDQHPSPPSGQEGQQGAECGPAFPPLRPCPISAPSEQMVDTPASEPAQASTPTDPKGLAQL
Kind of series: Ca2+ influx assay. As to conditions: for inhibition at 50 µM: 1321-N1, read-out: h-P2X2 % inhibition; for activity against h-P2X2 receptor (in words): SAR statement.

The next series concerns the target T2, h-P2X4R (Homo sapiens, UniProt Q99571).
T2 sequence (Q99571 1-388): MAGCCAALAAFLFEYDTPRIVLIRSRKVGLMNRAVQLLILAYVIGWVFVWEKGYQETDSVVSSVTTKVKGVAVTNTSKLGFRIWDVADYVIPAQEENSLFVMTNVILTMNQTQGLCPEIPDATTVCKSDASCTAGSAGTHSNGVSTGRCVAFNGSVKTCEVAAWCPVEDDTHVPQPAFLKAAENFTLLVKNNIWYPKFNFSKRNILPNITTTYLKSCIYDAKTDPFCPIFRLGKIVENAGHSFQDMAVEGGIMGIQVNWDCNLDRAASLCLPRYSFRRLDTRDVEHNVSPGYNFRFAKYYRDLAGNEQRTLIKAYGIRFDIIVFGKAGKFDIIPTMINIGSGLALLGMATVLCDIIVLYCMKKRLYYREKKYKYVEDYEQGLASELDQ
The series is described as follows: Ca2+ influx assay. The conditions noted are these: for inhibition at 50 µM: 1321-N1, read-out: h-P2X4 % inhibition.

The target of a further series is h-P2X5 receptor (Homo sapiens, UniProt Q93086). Kind of series: Ca2+ influx assay. The conditions noted are these: for inhibition at 50 µM: 1321-N1, read-out: h-P2X5 % inhibition.
For a further series, the target named is T3, h-P2X7R (Homo sapiens, UniProt Q99572).
T3 sequence (Q99572 1-595): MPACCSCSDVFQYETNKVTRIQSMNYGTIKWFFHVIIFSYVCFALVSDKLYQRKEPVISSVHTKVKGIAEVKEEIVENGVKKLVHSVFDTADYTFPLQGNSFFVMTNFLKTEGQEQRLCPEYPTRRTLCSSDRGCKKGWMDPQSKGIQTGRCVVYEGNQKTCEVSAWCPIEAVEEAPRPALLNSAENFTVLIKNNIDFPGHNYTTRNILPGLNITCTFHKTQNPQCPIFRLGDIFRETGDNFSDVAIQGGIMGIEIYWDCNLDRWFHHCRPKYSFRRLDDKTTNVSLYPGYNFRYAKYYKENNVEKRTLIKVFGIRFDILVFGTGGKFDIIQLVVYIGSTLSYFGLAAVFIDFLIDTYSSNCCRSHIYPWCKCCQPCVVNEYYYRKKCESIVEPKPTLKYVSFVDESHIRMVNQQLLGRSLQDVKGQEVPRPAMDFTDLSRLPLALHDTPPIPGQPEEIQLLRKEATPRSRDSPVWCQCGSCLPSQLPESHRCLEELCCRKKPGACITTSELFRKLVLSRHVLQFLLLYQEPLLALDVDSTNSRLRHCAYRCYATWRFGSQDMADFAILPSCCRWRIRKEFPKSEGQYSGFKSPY
The series is described as follows: Ca2+ influx assay. As to conditions: for inhibition at 50 µM: 1321-N1, read-out: h-P2X7 % inhibition.

In general, IC50 refers to the concentration that gives 50% inhibition. Broadly, the inhibition is the drop in the measured response relative to a control, in per cent.

Like-named read-outs stand apart in the source and are kept apart here.

Chain of h-P2X5 receptor (Q93086 whole entry): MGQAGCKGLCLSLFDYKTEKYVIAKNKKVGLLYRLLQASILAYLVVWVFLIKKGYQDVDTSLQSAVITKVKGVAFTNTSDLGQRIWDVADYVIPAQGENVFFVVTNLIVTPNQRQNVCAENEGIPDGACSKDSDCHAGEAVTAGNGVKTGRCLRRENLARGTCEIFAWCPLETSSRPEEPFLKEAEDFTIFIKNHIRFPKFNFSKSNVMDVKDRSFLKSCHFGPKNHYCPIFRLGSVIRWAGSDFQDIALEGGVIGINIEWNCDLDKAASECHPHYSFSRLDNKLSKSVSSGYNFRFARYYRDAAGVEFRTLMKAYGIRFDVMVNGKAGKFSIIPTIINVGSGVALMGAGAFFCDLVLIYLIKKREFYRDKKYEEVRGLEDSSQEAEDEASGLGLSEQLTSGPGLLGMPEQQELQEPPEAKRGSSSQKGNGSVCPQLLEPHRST

With `CC(=NNC(=O)c1ccccc1NS(C)(=O)=O)c1ccccc1` [6a, N-(2-(2-(1-Phenylethylidene)hydrazinecarbonyl)phenyl)methanesulfonamide], the cytotoxicity at 24 h, 50 µM in the series “Cytotoxicity assay” amounted to 14 ± 0.21%. In addition, the IC50 against h-P2X2R was > 50 µM; at h-P2X4R, > 50 µM; against h-P2X5 receptor, > 50 µM; against h-P2X7R, 4.21 ± 0.01 µM. Also, the results for the inhibition at 50 µM at h-P2X2R, on h-P2X4R and on h-P2X5 receptor were 20%, 46% and 20%, respectively.

In the case of `CC(=NNC(=O)c1ccccc1NS(C)(=O)=O)c1ccccc1F` [6b, N-(2-(2-(1-(2-Fluorophenyl)ethylidene)hydrazinecarbonyl)phenyl)methanesulfonamide], the cytotoxicity at 24 h, 50 µM in “Cytotoxicity assay” was 11.4 ± 0.57%. The IC50 on h-P2X2R is 1.91 ± 0.03 µM; against h-P2X4R it was > 50 µM; on h-P2X5 receptor it was > 50 µM. Further, the results for the inhibition at 50 µM at h-P2X4R and at h-P2X5 receptor were 40% and 16%, respectively.

As to `CC(=NNC(=O)c1ccccc1NS(C)(=O)=O)c1cccc(Br)c1` [6c, N-(2-(2-(1-(3-Bromophenyl)ethylidene)hydrazinecarbonyl)phenyl)methanesulfonamide], the cytotoxicity at 24 h, 50 µM in the series “Cytotoxicity assay” came to 15.1 ± 0.44%. The 50% inhibitory concentration (IC50) at h-P2X2R was > 50 µM; against h-P2X4R, > 50 µM; against h-P2X5 receptor, > 50 µM; against h-P2X7R it was 5.54 ± 0.05 µM. The values for the inhibition at 50 µM at h-P2X2R, on h-P2X4R and at h-P2X5 receptor were 0%, 24% and 0%, respectively. The “activity against h-P2X2 receptor (in words)” value on h-P2X2R is recorded as “loss of activity”.

As to `CC(=NNC(=O)c1ccccc1NS(C)(=O)=O)c1ccc(Cl)cc1` [6d, N-(2-(2-(1-(4-Chlorophenyl)ethylidene)hydrazinecarbonyl)phenyl)methanesulfonamide], the cytotoxicity at 24 h, 50 µM in “Cytotoxicity assay” was found to be 6.96 ± 0.8%. The IC50 on h-P2X2R, against h-P2X4R, at h-P2X5 receptor and at h-P2X7R was > 50 µM each time. For the same molecule, the inhibition at 50 µM on h-P2X2R was 15%; at h-P2X4R, 18%; at h-P2X5 receptor it was 42%; on h-P2X7R, 48%. Besides, the “activity against h-P2X2 receptor (in words)” value at h-P2X2R is “loss of activity”.

Consider `CC(=NNC(=O)c1ccccc1NS(C)(=O)=O)c1ccc(Br)cc1` [6e, N-(2-(2-(1-(4-Bromophenyl)ethylidene)hydrazinecarbonyl)phenyl)methanesulfonamide], for which the cytotoxicity at 24 h, 50 µM in the series “Cytotoxicity assay” was found to be 16.8 ± 1.1%. Also, the IC50 against h-P2X2R was 3.22 ± 0.05 µM; on h-P2X4R, > 50 µM; at h-P2X5 receptor, > 50 µM; against h-P2X7R, > 50 µM. In addition, the inhibition at 50 µM on h-P2X4R came out at 0%; at h-P2X5 receptor it was 10%; on h-P2X7R it was 34%.

Molecule `CC(=NNC(=O)c1ccccc1NS(C)(=O)=O)c1ccc(I)cc1` [6f, N-(2-(2-(1-(4-Iodophenyl)ethylidene)hydrazinecarbonyl)phenyl)methanesulfonamide] registered a cytotoxicity at 24 h, 50 µM in the series “Cytotoxicity assay” of 8.31 ± 0.33%. For the same molecule, the 50% inhibitory concentration (IC50) against h-P2X2R was 3.52 ± 0.07 µM; on h-P2X4R, > 50 µM; at h-P2X5 receptor, > 50 µM; against h-P2X7R, 10.01 ± 0.07 µM. Besides, the results for the inhibition at 50 µM on h-P2X4R and at h-P2X5 receptor were 32% and 21%, respectively.

Turning to `COc1ccc(C(C)=NNC(=O)c2ccccc2NS(C)(=O)=O)cc1` [6g, N-(2-(2-(1-(4-Methoxyphenyl)ethylidene)hydrazinecarbonyl)phenyl)methanesulfonamide], the cytotoxicity at 24 h, 50 µM in “Cytotoxicity assay” turned out to be 5.29 ± 0.72%. For the same molecule, the IC50 against h-P2X2R is 3.48 ± 0.04 µM; against h-P2X4R, > 50 µM; at h-P2X5 receptor it was > 50 µM; at h-P2X7R, 2.09 ± 0.13 µM. In addition, the values for the inhibition at 50 µM at h-P2X4R and on h-P2X5 receptor were 45% and 26%, respectively.

Turning to `CC(=NNC(=O)c1ccccc1NS(C)(=O)=O)c1cccs1` [7a, N-(2-(2-(1-(Thiophen-2-yl)ethylidene)hydrazinecarbonyl)phenyl)methanesulfonamide], in “Cytotoxicity assay”, the cytotoxicity at 24 h, 50 µM came out at 11.6 ± 0.89%. Further, the 50% inhibitory concentration (IC50) is 1.57 ± 0.01 µM against h-P2X2R, > 50 µM on h-P2X4R, > 50 µM on h-P2X5 receptor and > 50 µM at h-P2X7R. Moreover, the inhibition at 50 µM came to 24% at h-P2X4R, 29% at h-P2X5 receptor and 45% at h-P2X7R. Also, the “activity against h-P2X4 receptor (in words)” value on h-P2X4R (SAR statement) was “inactive”.

`CC(=NNC(=O)c1ccccc1NS(C)(=O)=O)c1sccc1C` [7b, N-(2-(2-(1-(3-Methylthiophen-2-yl)ethylidene)hydrazinecarbonyl)phenyl)methanesulfonamide]: the cytotoxicity at 24 h, 50 µM in “Cytotoxicity assay” came out at 10.7 ± 0.54%. Also, the IC50 was 1.8 ± 0.02 µM on h-P2X2R, > 50 µM on h-P2X4R, > 50 µM against h-P2X5 receptor and > 50 µM at h-P2X7R. The inhibition at 50 µM at h-P2X4R turned out to be 8%; at h-P2X5 receptor, 12%; at h-P2X7R, 47%.

In the series “Cytotoxicity assay”, `CC(=NNC(=O)c1ccccc1NS(C)(=O)=O)c1cc(C)cs1` [7c, N-(2-(2-(1-(4-Methylthiophen-2-yl)ethylidene)hydrazinecarbonyl)phenyl)methanesulfonamide] gave a cytotoxicity at 24 h, 50 µM of 5.98 ± 0.09%. The IC50 on h-P2X2R is 1.59 ± 0.01 µM; on h-P2X4R, 3.89 ± 0.05 µM; at h-P2X5 receptor, > 50 µM; against h-P2X7R it was 8.94 ± 0.01 µM. Besides, at h-P2X5 receptor, the inhibition at 50 µM worked out at 31%.

Regarding `CC(=NNC(=O)c1ccccc1NS(C)(=O)=O)c1ccc(C)s1` [7d, N-(2-(2-(1-(5-Methylthiophen-2-yl)ethylidene)hydrazinecarbonyl)phenyl)methanesulfonamide], in the series “Cytotoxicity assay”, the cytotoxicity at 24 h, 50 µM came to 1.57 ± 0.11%. In addition, the IC50 at h-P2X2R is 2.03 ± 0.04 µM; against h-P2X4R, 3.21 ± 0.01 µM; on h-P2X5 receptor, > 50 µM; at h-P2X7R, 4.53 ± 0.11 µM. For the same molecule, the inhibition at 50 µM on h-P2X5 receptor is 46%.

Consider `CC(=NNC(=O)c1ccccc1NS(C)(=O)=O)c1ccc(Cl)s1` [7f, N-(2-(2-(1-(5-Chlorothiophen-2-yl)ethylidene)hydrazinecarbonyl)phenyl)methanesulfonamide], for which, in the series “Cytotoxicity assay”, the cytotoxicity at 24 h, 50 µM is 11.6 ± 0.26%. In addition, the IC50 on h-P2X2R is > 50 µM; on h-P2X4R, 4.03 ± 0.07 µM; at h-P2X5 receptor, > 50 µM; at h-P2X7R, 1.16 ± 0.03 µM. The inhibition at 50 µM at h-P2X2R was determined as 37%; on h-P2X5 receptor, 0%.

In turn, `CC(=NNC(=O)c1ccccc1NS(C)(=O)=O)c1ccc([N+](=O)[O-])s1` [7g, N-(2-(2-(1-(5-Nitrothiophen-2-yl)ethylidene)hydrazinecarbonyl)phenyl)methanesulfonamide] registered a cytotoxicity at 24 h, 50 µM in the series “Cytotoxicity assay” of 23.8 ± 2.15%. Further, the IC50 is > 50 µM against h-P2X2R, 2.44 ± 0.1 µM at h-P2X4R, > 50 µM against h-P2X5 receptor and 6.8 ± 0.21 µM at h-P2X7R. For the same molecule, the inhibition at 50 µM is 26% at h-P2X2R and 19% at h-P2X5 receptor.

As to `Nc1c(S(=O)(=O)O)cc(Nc2ccc(Nc3nc(Cl)nc(Nc4cccc(S(=O)(=O)O)c4)n3)c(S(=O)(=O)O)c2)c2c1C(=O)c1ccccc1C2=O` [RB-2, Reactive Blue 2, reference compound], the concentration for half-maximal inhibition (IC50) at h-P2X2R was 0.89 ± 0.41 µM; at h-P2X7R it was 2.79 ± 0.22 µM.

Regarding `Cc1ccc(C(=O)Nc2ccc(S(=O)(=O)O)c3cc(S(=O)(=O)O)cc(S(=O)(=O)O)c23)cc1NC(=O)c1cccc(NC(=O)Nc2cccc(C(=O)Nc3cc(C(=O)Nc4ccc(S(=O)(=O)O)c5cc(S(=O)(=O)O)cc(S(=O)(=O)O)c45)ccc3C)c2)c1` [Suramin, reference compound], at h-P2X5 receptor (read-out: h-P2X5 IC50 ± SEM, Ca2+ influx, ATP at EC80, n = 3), the IC50 stood at 16.1 ± 0.5 µM.
